Consider 16 compounds from ChEMBL document CHEMBL3769348, “A structureactivity relationship study of the positive allosteric modulator LY2033298 at the M4muscarinic acetylcholine receptor” (Medchemcomm, 2015).

Active and inactive are the calls of the source. No cut-off for these calls is given here.

What all share (format): cell-based
The target of test [1] is T1, Muscarinic acetylcholine receptor M4 (Homo sapiens) (UniProt P08173).
T1 sequence (whole entry): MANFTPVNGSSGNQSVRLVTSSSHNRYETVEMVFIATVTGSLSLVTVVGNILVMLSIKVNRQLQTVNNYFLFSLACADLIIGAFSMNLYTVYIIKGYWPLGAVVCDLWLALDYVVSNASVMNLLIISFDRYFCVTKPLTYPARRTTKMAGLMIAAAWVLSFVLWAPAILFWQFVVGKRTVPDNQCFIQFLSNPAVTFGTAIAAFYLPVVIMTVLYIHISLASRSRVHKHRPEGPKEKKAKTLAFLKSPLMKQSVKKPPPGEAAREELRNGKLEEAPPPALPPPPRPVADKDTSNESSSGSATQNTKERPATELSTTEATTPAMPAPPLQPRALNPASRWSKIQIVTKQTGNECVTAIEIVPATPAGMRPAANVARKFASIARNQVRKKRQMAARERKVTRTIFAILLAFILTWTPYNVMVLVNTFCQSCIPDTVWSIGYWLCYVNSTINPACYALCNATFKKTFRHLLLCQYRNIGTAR
The test is described as follows: Allosteric modulation of human M4 mAChR expressed in FIpIn-CHO cells assessed as ERK1/2 phosphorylation after 6 mins by Alphascreen assay in the presence of ACh. In general terms: Bead proximity is the source of the signal in Alpha formats.

For test [2], the target named is T1, Muscarinic acetylcholine receptor M4 (Homo sapiens). The test is described as follows: Intrinsic activity at human M4 mAChR expressed in FIpIn-CHO cells assessed as ERK1/2 phosphorylation after 6 mins by Alphascreen assay in the presence of ACh.
Test [3] has the same target. The test is described as follows: Allosteric modulation of human M4 mAChR expressed in FIpIn-CHO cells assessed as ERK1/2 phosphorylation measured overall cooperativity after 6 mins by Alphascreen assay.
For test [4], the target named is T2, Muscarinic acetylcholine receptor M4 (Homo sapiens, UniProt P08173).
T2 sequence (P08173 whole entry): T1 sequence (whole entry)
The test can be described thus: Displacement of [3H]NMS from human M4 mAChR expressed in FIpIn-CHO cells after 4 hrs by scintillation counting method in the presence of ACh. (In a radioligand displacement assay an active substance lowers the binding of a labelled ligand.)

For test [5], the target named is T1, Muscarinic acetylcholine receptor M4 (Homo sapiens). The test can be described thus: Displacement of [3H]NMS from human M4 mAChR expressed in FIpIn-CHO cells assessed as ligand affinity after 4 hrs by scintillation counting method in the presence of ACh.

Turning to `COc1nc2sc(C(=O)NC3CC3)c(NC(C)=O)c2c(C)c1Cl`, in test [1], the Kb entry is “inactive” and the pKb – broadly, the negative decadic logarithm of the Kb, by convention in mol/L – is “inactive”. In test [2], the Intrinsic activity entry was “inactive” and the “log(IA)” value was “inactive”. In test [3], the outcome was inactive and the “log(activity)” value is “inactive”.
For `CCCC(=O)Nc1c(C(=O)NC2CC2)sc2nc(OC)c(Cl)c(C)c12`, in test [1], the Kb entry was “inactive” and the pKb result is “inactive”. Also, in test [2], the Intrinsic activity result is “inactive” and the “log(IA)” value is “inactive”. In test [3], the outcome was inactive and the “log(activity)” value was “inactive”.
Take `CCCCOc1nc2sc(C(=O)NC3CC3)c(N)c2c(C)c1Cl`: in test [1], the Kb turned out to be 200 nM and the pKb amounted to 6.81. Also, in test [2], the Intrinsic activity was found to be 0.3 and the log(IA) was -0.51. Further, in test [3], the Activity turned out to be 2.5 and the log(activity) stood at 0.4. For the same compound, the inhibition constant Ki – broadly, a dissociation constant, usually derived from enzyme kinetics or from competition with a known ligand – in test [4] is 2700 nM. In test [5], the Activity came out at 22.4 and the log(activity) came out at 1.35.
As to `CCNC(=O)c1sc2nc(OC)c(Cl)c(C)c2c1N`, in test [1], the Kb is 200 nM and the negative logarithm of the Kb (pKb) is 6.73. For the same compound, in test [2], the Intrinsic activity was 8.7 and the log(IA) came out at 0.94. Moreover, in test [3], the Activity came to 69.2 and the log(activity) came to 1.84. Besides, the Ki in test [4] is 4300 nM. For the same compound, in test [5], the Activity came to 562 and the log(activity) worked out at 2.75.
With `COc1nc2sc(C(=O)NC3CC3)c(N)c2c(C)c1I`, in test [1], the Kb was 200 nM and the negative-log Kb (pKb) stood at 6.66. Moreover, in test [2], the Intrinsic activity came out at 2.3 and the log(IA) turned out to be 0.37. Besides, in test [3], the Activity was 9.3 and the log(activity) was determined as 0.97. Besides, the Ki in test [4] turned out to be 1700 nM. In addition, in test [5], the Activity is 269 and the log(activity) was found to be 2.43.
As to `CCCCNC(=O)c1sc2nc(OC)c(Cl)c(C)c2c1N`, in test [1], the Kb amounted to 500 nM and the pKb amounted to 6.29. In test [2], the Intrinsic activity turned out to be 2.8 and the log(IA) turned out to be 0.44. Besides, in test [3], the Activity came to 15.5 and the log(activity) is 1.19. For the same compound, in test [4], the inhibition constant (Ki) was found to be 3200 nM. In test [5], the Activity was found to be 123 and the log(activity) amounted to 2.09.
`COc1nc2sc(C(=O)NC3CC3)c(N)c2c(C)c1Br`: in test [1], the Kb amounted to 300 nM and the pKb is 6.52. Further, in test [2], the Intrinsic activity is 17.8 and the log(IA) is 1.25. In test [3], the Activity worked out at 81.3 and the log(activity) is 1.91. Moreover, in test [4], the Ki worked out at 520 nM. In test [5], the Activity was 347 and the log(activity) turned out to be 2.54.
For the compound `CCOc1nc2sc(C(=O)NC3CC3)c(N)c2c(C)c1Cl`, in test [1], the Kb amounted to 800 nM and the negative logarithm of the Kb (pKb) is 6.1. In addition, in test [2], the Intrinsic activity is 9.3 and the log(IA) was determined as 0.97. In test [3], the Activity turned out to be 61.7 and the log(activity) came out at 1.79. Moreover, the Ki in test [4] is 200 nM. In test [5], the Activity turned out to be 95.5 and the log(activity) stood at 1.98.
As for `CCCCCCNC(=O)c1sc2nc(OC)c(Cl)c(C)c2c1N`, in test [1], the Kb came to 200 nM and the negative logarithm of the Kb (pKb) worked out at 6.7. Also, in test [2], the Intrinsic activity turned out to be 0.4 and the log(IA) was -0.35. For the same compound, in test [3], the Activity came out at 1.3 and the log(activity) turned out to be 0.13.
`CCCCCC(=O)Nc1c(C(=O)NC2CC2)sc2nc(OC)c(Cl)c(C)c12`: in test [1], the Kb result is “inactive” and the pKb result was “inactive”. In test [2], the Intrinsic activity result was “inactive” and the “log(IA)” value was “inactive”. Also, in test [3], the result was inactive and the “log(activity)” value was “inactive”.
Take `COc1cc(C)c2c(N)c(C(=O)NC3CC3)sc2n1`: in test [1], the Kb was determined as 2800 nM and the pKb came out at 5.55. In addition, in test [2], the Intrinsic activity stood at 4.6 and the log(IA) was found to be 0.66. For the same compound, in test [3], the Activity amounted to 28.8 and the log(activity) came out at 1.46.
As to `COc1nc2sc(C(=O)NC3CC3)c(N)c2c(C)c1Cl`, in test [1], the Kb worked out at 400 nM and the pKb is 6.41. Further, in test [2], the Intrinsic activity is 8.5 and the log(IA) was found to be 0.93. In test [3], the Activity came out at 240 and the log(activity) stood at 2.38. Moreover, the inhibition constant Ki in test [4] came to 400 nM. In test [5], the Activity amounted to 1740 and the log(activity) amounted to 3.24.
Consider `Cc1nc(C)c2c(N)c(C(=O)NC3CC3)sc2n1`, for which, in test [1], the Kb worked out at 12500 nM and the negative logarithm of the Kb (pKb) was 4.9. Besides, in test [2], the Intrinsic activity is 3.1 and the log(IA) turned out to be 0.49. In test [3], the Activity came out at 14.1 and the log(activity) is 1.15.
For `Cc1cc(C)c2c(N)c(C(=O)NC3CC3)sc2n1`, in test [2], the Intrinsic activity came to 5.9 and the log(IA) was 0.77. Moreover, in test [3], the Activity was found to be 52.5 and the log(activity) was 1.72.
Take `Cc1nc2sc(C(=O)NC3CC3)c(N)c2c(C)c1Cl`: in test [1], the Kb amounted to 400 nM and the pKb amounted to 6.45. Further, in test [2], the Intrinsic activity is 12.9 and the log(IA) amounted to 1.11. Also, in test [3], the Activity is 77.6 and the log(activity) was 1.89.
As for `CCCCCCOc1nc2sc(C(=O)NC3CC3)c(N)c2c(C)c1Cl`, in test [1], the Kb came out at 40 nM and the negative logarithm of the Kb (pKb) was 7.42. Also, in test [2], the Intrinsic activity came out at 0.2 and the log(IA) was -0.75. For the same compound, in test [3], the Activity was determined as 2 and the log(activity) is 0.3.
